Experimental data as given in patent US7375083B2, “Pharmaceutical compositions for prevention of overdose or abuse” (Shire LLC, priority 2003, dated 2008).

Tests used:
[1] = test system: Male Sprague-Dawley rats; experiment: Locomotor activity after intranasal administration with and without CMC; assay type: in vivo; details: 1.0 mg/kg
[2] = Kitchen tests: release of amphetamine by water, acid, base and heat; details: heated to boiling for 20-60 minutes

In the case of CC(Cc1ccccc1)NC(=O)C(N)CCCCN [L-lysine-d-amphetamine, 2,6-diaminohexanoic acid-(1-methyl-2-phenylethyl)-amide], the Percent d-amphetamine ([1]; activity above baseline relative to d-amphetamine) is reported as 35%, the “Increase in activity over baseline compared to d-amphetamine dosed animals” value ([1]; rat, with CMC) is reported as 9% and the “amphetamine detected after treatment: Baking Powder” value [2] is reported as 0%. The “amphetamine detected after treatment: Baking Soda” value [2] was 0%, the “amphetamine detected after treatment: Tap Water” value [2] was 0% and the “amphetamine detected after treatment: Vinegar” value [2] was 0%.
